Laboratory results taken from publication PMC10590419, “Structural and mechanistic insights into the inhibition of respiratory syncytial virus polymerase by a non-nucleoside inhibitor” (Communications Biology, 2023).

Target: T1, Human DNA polymerase alpha (Homo sapiens, UniProt P09884)
T1 construct: purchased CHIMERx
T1 sequence (P09884 1-1462): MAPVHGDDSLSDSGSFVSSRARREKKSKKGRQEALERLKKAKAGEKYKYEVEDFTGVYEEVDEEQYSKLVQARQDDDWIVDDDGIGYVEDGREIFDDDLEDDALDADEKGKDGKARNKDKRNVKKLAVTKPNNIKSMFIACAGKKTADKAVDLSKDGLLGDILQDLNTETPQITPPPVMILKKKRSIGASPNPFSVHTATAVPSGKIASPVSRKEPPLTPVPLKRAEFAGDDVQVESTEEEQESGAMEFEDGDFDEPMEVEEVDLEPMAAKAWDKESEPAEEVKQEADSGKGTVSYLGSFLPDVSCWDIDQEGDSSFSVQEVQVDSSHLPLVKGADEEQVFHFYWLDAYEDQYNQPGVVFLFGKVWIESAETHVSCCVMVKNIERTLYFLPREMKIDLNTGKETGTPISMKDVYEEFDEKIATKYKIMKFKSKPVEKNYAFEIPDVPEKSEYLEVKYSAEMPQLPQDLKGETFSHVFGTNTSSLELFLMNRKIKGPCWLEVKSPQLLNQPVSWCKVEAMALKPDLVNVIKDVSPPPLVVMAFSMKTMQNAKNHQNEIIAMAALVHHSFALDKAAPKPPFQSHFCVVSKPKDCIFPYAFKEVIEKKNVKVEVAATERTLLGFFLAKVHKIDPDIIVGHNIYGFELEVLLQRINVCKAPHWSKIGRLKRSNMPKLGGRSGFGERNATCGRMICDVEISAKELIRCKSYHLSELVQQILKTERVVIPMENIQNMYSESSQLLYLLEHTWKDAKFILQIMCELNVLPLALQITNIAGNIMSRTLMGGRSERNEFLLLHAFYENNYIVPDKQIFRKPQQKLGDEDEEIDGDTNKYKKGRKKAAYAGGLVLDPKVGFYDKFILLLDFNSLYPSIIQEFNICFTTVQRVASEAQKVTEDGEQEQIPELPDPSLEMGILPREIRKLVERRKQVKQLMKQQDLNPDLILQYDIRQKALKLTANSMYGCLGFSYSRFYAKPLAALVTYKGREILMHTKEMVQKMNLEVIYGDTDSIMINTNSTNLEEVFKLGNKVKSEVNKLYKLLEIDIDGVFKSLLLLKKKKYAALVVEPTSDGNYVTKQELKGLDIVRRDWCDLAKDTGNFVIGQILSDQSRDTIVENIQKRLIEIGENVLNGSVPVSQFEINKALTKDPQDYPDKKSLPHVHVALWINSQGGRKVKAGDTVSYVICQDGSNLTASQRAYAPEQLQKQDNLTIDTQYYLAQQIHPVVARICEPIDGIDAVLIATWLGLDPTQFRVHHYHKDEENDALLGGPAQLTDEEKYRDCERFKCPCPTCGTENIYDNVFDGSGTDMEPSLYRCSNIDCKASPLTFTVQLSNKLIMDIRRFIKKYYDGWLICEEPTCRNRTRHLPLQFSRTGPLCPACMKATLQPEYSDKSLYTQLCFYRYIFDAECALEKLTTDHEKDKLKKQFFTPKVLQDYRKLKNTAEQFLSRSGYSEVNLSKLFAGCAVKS
Experiment: DNA-dependent DNA polymerase activity
Type: biochemical
Settings: DNA Pol α
Method: to the method described previously 1. A 25 nM solution of RSV MTase-CTD protein or RSV L+P complex was incubated with 0.7 µM or 1.8 µM purified synthetic RNA 5’-Gppp […]
[…] (RSV9) for the MTase-CTD or L+P complex, respectively; 2 µM or 0.17 µM S-adenosyl methionine (SAM) for the MTase-CTD or L–P complex, respectively; and 0.1 µM or 0.8 µM 3H-SAM (Perkin Elmer) for the MTase-CTD or L–P complex, respectively; in 50 mM Tris-HCl pH 8.0. Compounds, previously dissolved in DMSO were added at a final concentration of 50 µM or 200 µM. After 3 h incubation at 30°C, reactions were quenched by a 20-fold dilution in ice cold water. Samples were transferred to DEAE filtermats (Perkin Elmer) using a Filtermat Harvester (Packard Instruments). The RNA-retaining mats were washed twice with 10 mM ammonium formate pH 8.0, twice with water and once with ethanol. They were then soaked with scintillation fluid (Perkin Elmer), and 3H-methyl transfer to the RNA substrates was determined using a Wallac MicroBeta TriLux Liquid Scintillation Counter.
Cellular polymerase assays
DNA-dependant DNA polymerase (DdDp) activity
Human DNA polymerases alpha (CHIMERx) at 5 U/ml, beta (CHIMERx) at 0.5 U/ml and gamma (Abcam) at 0.1 mg/ml were incubated with the tested inhibitors at specified concentrations, and a reaction mix composed of 62 µg/ml activated calf thymus DNA, dGTP (2 µM), dATP (2 µM), dCTP (2 µM), [ 3H]dTTP (0.05 µCi/µl), 0.1 mg/ml BSA and a buffer composed of Tris-HCl pH 8 (50 mM), MgCl 2 (5 mM), KCl (60 mM), and DTT (4 mM.) in a total volume of 50 µl. After 2 hours incubation at 30°C, reaction was terminated by addition of 60 µl of a chilled stop solution composed of 20% (w/v) TCA with 0.5 mM ATP. […] Radioactivity was measured via liquid scintillation counting (MicroScint-20, 40µl) on a TriLux apparatus. […]
The RNA transcription activity of human mitochondrial RNA polymerase (POLRMT) was measured by the incorporation of radioactively labeled nucleotides by POLRMT into acid-insoluble RNA products as described previously 2. […]

## COc1cc(C(=O)NC[C@](O)(c2cc(C(C)(C)O)c(F)c(-c3ccc(F)cc3)n2)C(F)(F)F)cc2cc(C)nnc12 [JNJ-8003]
  IC50: > 100 µM
